Measured values taken from patent US4189607A, “Anilionotropone derivatives” (priority 1979, dated 1980).
Where a name gives a salt, the structure may show the parent alone.

Legend:
rat paw edema = assay: Anti-inflammatory activity, carrageenin rat paw edema (Winter et al); type: in vivo, Male Wistar strain rats; conditions: p.o., four hours after injection of carrageenin
Experimental: Experiment 1: Anti-inflammatory activity
Anti-inflammatory activity was evaluated by the method of rat paw edema (Winter et al, J. Pharmacol. Exp. Ther., 141, 369 (1963) ). Six male Wistar strain rats were used in each group and the volume of each paw was measured four hours after injection of carrageenin.

acetic acid writhing = assay: Analgesic activity, acetic acid writhing test (Koster et al); type: in vivo, Male ddY strain mice; conditions: p.o.
Source text: Experiment 3: Analgesic activity
Male ddY strain mice in groups of ten each were used for evaluation of analgesic activity by the acetic acid writhing test (Koster et al, Federation Proc., 18, 412 (1959). The results are shown in Tables 3 and 4.

gastric lesions = assay: Gastric ulcerogenicity (gastric lesions); type: in vivo, Male Wistar strain rats; conditions: p.o., 18 hours fasting prior to autopsy
Source text: Experiment 4: Gastric ulcerogenicity […] The gastric lesions induced was expressed as incidence (number of rats with gastric lesions/number of the test rats) and lesion index (sum of areas damaged).

[1] = Analgesic activity, method of Randall-Selitto with slight modification; type: in vivo, Male Wistar strain rats; conditions: 25 mg/kg orally, vs Cpd. 3 at 100 mg/kg
Experimental: Experiment 2: Analgesic activity
Male Wistar strain rats in groups of six each were used for the evaluation of analgesic activity by the method of Randall-Selitto (Arch. Intern. Pharmacodyn., 111, 409 (1957) ) with slight modification. In a graph where the load was plotted on the ordinate and the time was plotted on the abscissa, the curve obtained when Cpd. 1 was orally administered in a dose of 25 mg/kg was substantially in agreement with the curve obtained when Cpd. 3 was orally administered in a dose of 100 mg/kg. […] 1 was administered in a dose of 50 mg/kg and the Cpd 3 was administered in a dose of 200 mg/kg.

[2] = Table 6, 100 + 200 mg/kg, 200 mg/kg

With `CC(C(=O)O)c1cccc(Nc2cccccc2=O)c1` (centres unmarked) [Cpd. 2, 2-[m-(2-troponylamino)phenyl]propionic acid] the “Inhibition (%)” value (rat paw edema; Table 2, 100 mg/kg, 100 mg/kg) was 43.0%, the “Inhibition (%)” value (acetic acid writhing; Table 4, 100 mg/kg) was 31.2% and the “Incidence (number of rats with gastric lesions/number of the test rats)” value (gastric lesions; [2]) was 0/6. The “Lesion index (sum of areas damaged)” value (gastric lesions; [2]) was 0 mm^2.
In the case of `CCCCC1C(=O)N(c2ccccc2)N(c2ccccc2)C1=O` [Cpd. 3, phenylbutazone, reference compound], the “Inhibition (%)” value (rat paw edema; Table 1, 25 mg/kg) is reported as 22.4%, the “Inhibition (%)” value (rat paw edema; Table 1, 50 mg/kg) is reported as 34.7% and the “Inhibition (%)” value (rat paw edema; Table 1, 100 mg/kg) is reported as 54.5%. For the same molecule, the “Inhibition (%)” value (rat paw edema; Table 2, 100 mg/kg) was 32.5%, the “Inhibition (%)” value (acetic acid writhing; Table 3, 200 mg/kg) was 18.5% and the “Inhibition (%)” value (acetic acid writhing; Table 4, 100 mg/kg) was 10.7%. For the same molecule, the “Lesion index (sum of areas damaged)” value (gastric lesions; Table 5, 25 + 50 mg/kg) was 0.02 ± 0.014 mm^2, the “Lesion index (sum of areas damaged)” value (gastric lesions; Table 5, 50 + 100 mg/kg) was 1.43 ± 0.43 mm^2 and the “Lesion index (sum of areas damaged)” value (gastric lesions; Table 5, 100 + 200 mg/kg) was 6.82 ± 1.40 mm^2. For the same molecule, the “Lesion index (sum of areas damaged)” value (gastric lesions; Table 6, 100 + 200 mg/kg) was 7.70 ±3.23 mm^2.
In the case of `CC(C(=O)O)c1ccc(Nc2cccccc2=O)cc1` (centres unmarked) [Cpd. 1, 2-[p-(2-troponylamino)phenyl]propionic acid], the “Inhibition (%)” value (rat paw edema; Table 1, 25 mg/kg) is reported as 56.8%, the “Inhibition (%)” value (rat paw edema; Table 1, 50 mg/kg) is reported as 50.9% and the “Inhibition (%)” value (rat paw edema; Table 1, 100 mg/kg) is reported as 61.0%. The “Load-time curve compared with Cpd. 3” value [1] was “substantially in agreement with the curve obtained when Cpd. 3 was orally administered in a dose of 100 mg/kg”, the “Inhibition (%)” value (acetic acid writhing; Table 3, 100 mg/kg) was 54.8% and the “Incidence (number of rats with gastric lesions/number of the test rats)” value (gastric lesions; Table 5, 25 + 50 mg/kg) was 0/6. For the same molecule, the “Lesion index (sum of areas damaged)” value (gastric lesions; Table 5, 25 + 50 mg/kg) was 0 mm^2, the “Incidence (number of rats with gastric lesions/number of the test rats)” value (gastric lesions; Table 5, 50 + 100 mg/kg) was 1/6 and the “Lesion index (sum of areas damaged)” value (gastric lesions; Table 5, 50 + 100 mg/kg) was 0.02 ± 0.017 mm^2. The “Incidence (number of rats with gastric lesions/number of the test rats)” value (gastric lesions; Table 5, 100 + 200 mg/kg) was 4/6 and the “Lesion index (sum of areas damaged)” value (gastric lesions; Table 5, 100 + 200 mg/kg) was 0.52 ± 0.17 mm^2.
With `CC(C(=O)O)c1cccc(Nc2cccccc2=O)c1` (centres unmarked) [Cpd. 2-Ca salt, calcium 2-[m-(2-troponylamino)phenyl]propionate] the “Inhibition (%)” value (rat paw edema; Table 2, 100 mg/kg, 100 mg/kg) was 43.2%, the “Inhibition (%)” value (acetic acid writhing; Table 4, 100 mg/kg) was 31.2% and the “Incidence (number of rats with gastric lesions/number of the test rats)” value (gastric lesions; [2]) was 2/6. For the same molecule, the “Lesion index (sum of areas damaged)” value (gastric lesions; [2]) was 0.12 ± 0.10 mm^2.
